Measurements from PubChem BioAssay AID248 (DTP/NCI, 2004).
“And” between values parts separate entries of the source, which are not always exact repeats. Identical values can stand only once. Toxic doses and inconclusive results are not listed. Rule as the data show it: active = T/C of 150% or more; inactive = T/C below 125%.

Test system: L1210 leukemia ip in BDF1 mice, survival T/C
Experiment: NCI In Vivo Anticancer Drug Screen. Data for tumor model L1210 Leukemia (intraperitoneal) in B6D2F1 (BDF1) mice
Conditions: endpoint: mean survival time, higher = longer survival
In short: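 Mice bearing the transplanted tumor received compound or vehicle. Survival of the treated group was divided by that of the vehicle-treated control group to give the ratio.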

[1] = dose: 100.0 mg/kg/injection, schedule: Q01DX009 (ip), vehicle: Klucel (hydroxypropylcellulose) (HPC)
[2] = dose: 200.0 mg/kg/injection, schedule: Q01DX009 (ip), vehicle: Klucel (hydroxypropylcellulose) (HPC)
[3] = dose: 400.0 mg/kg/injection, schedule: Q01DX009 (ip), vehicle: Klucel (hydroxypropylcellulose) (HPC)
[4] = dose: 100.0 mg/kg/injection, schedule: Q01DX001 (ip), vehicle: carboxymethylcellulose (CMC)
[5] = dose: 200.0 mg/kg/injection, schedule: Q01DX001 (ip), vehicle: carboxymethylcellulose (CMC)
[6] = dose: 100.0 mg/kg/injection, schedule: Q04DX003 (ip), vehicle: saline
[7] = dose: 100.0 mg/kg/injection, schedule: Q01DX001 (ip), vehicle: saline
[8] = dose: 200.0 mg/kg/injection, schedule: Q01DX001 (ip), vehicle: saline
[9] = dose: 400.0 mg/kg/injection, schedule: Q01DX001 (ip), vehicle: saline
[10] = dose: 100.0 mg/kg/injection, schedule: Q04DX003 (ip), vehicle: Klucel (hydroxypropylcellulose) (HPC)
[11] = dose: 200.0 mg/kg/injection, schedule: Q04DX003 (ip), vehicle: Klucel (hydroxypropylcellulose) (HPC)
[12] = dose: 400.0 mg/kg/injection, schedule: Q04DX003 (ip), vehicle: Klucel (hydroxypropylcellulose) (HPC)
[13] = dose: 25.0 mg/kg/injection, schedule: Q04DX003 (ip), vehicle: Klucel (hydroxypropylcellulose) (HPC)
[14] = dose: 100.0 mg/kg/injection, schedule: Q04DX003 (ip), vehicle: saline with Tween-80
[15] = dose: 200.0 mg/kg/injection, schedule: Q04DX003 (ip), vehicle: saline with Tween-80
[16] = dose: 400.0 mg/kg/injection, schedule: Q04DX003 (ip), vehicle: saline with Tween-80

Measured: T/C

N#[N+]c1nc[nH]c1C(N)=O
inactive: dose: 0.4 mg/kg/injection, schedule: Q03HX008 (ip), vehicle: steriod suspending solution 92 % of control | dose: 0.6 mg/kg/injection, schedule: Q03HX008 (ip), vehicle: steriod suspending solution 96 % of control | dose: 0.9 mg/kg/injection, schedule: Q03HX008 (ip), vehicle: steriod suspending solution 97 % of control | dose: 1.3 mg/kg/injection, schedule: Q03HX008 (ip), vehicle: steriod suspending solution 89 % of control | dose: 1.8 mg/kg/injection, schedule: Q03HX008 (ip), vehicle: steriod suspending solution 92 % of control | dose: 2.6 mg/kg/injection, schedule: Q03HX008 (ip), vehicle: steriod suspending solution 97 % of control | dose: 3.75 mg/kg/injection, schedule: Q01DX001 (ip), vehicle: steriod suspending solution 93 % of control | dose: 3.8 mg/kg/injection, schedule: Q03HX008 (ip), vehicle: steriod suspending solution 95 % of control | dose: 6.25 mg/kg/injection, schedule: Q01DX001 (ip), vehicle: steriod suspending solution 96 % of control | dose: 12.5 mg/kg/injection, schedule: Q01DX001 (ip), vehicle: steriod suspending solution 99 % of control

O=S(=O)(CCCBr)NC1CCCCC1
inactive: [1] 96 % of control | [2] 91 % of control | [3] 93 % of control

CN(C)N=Nc1ccccc1C(=O)NN
inactive: dose: 18.75 mg/kg/injection, schedule: Q01DX009 (ip), vehicle: Klucel (hydroxypropylcellulose) (HPC) 94 % of control and 110 % of control | dose: 37.5 mg/kg/injection, schedule: Q01DX009 (ip), vehicle: Klucel (hydroxypropylcellulose) (HPC) 105 % of control and 107 % of control | dose: 50.0 mg/kg/injection, schedule: Q01DX001 (ip), vehicle: carboxymethylcellulose (CMC) 101 % of control | dose: 75.0 mg/kg/injection, schedule: Q01DX009 (ip), vehicle: Klucel (hydroxypropylcellulose) (HPC) 100 % of control and 115 % of control | [4] 101 % of control | dose: 150.0 mg/kg/injection, schedule: Q01DX009 (ip), vehicle: Klucel (hydroxypropylcellulose) (HPC) 107 % of control | [5] 101 % of control

CCC(C#N)=C1CCCCC1
inactive: dose: 25.0 mg/kg/injection, schedule: Q01DX009 (ip), vehicle: saline with Tween-80 91 % of control | dose: 50.0 mg/kg/injection, schedule: Q01DX009 (ip), vehicle: saline with Tween-80 99 % of control | dose: 100.0 mg/kg/injection, schedule: Q01DX009 (ip), vehicle: saline with Tween-80 97 % of control | [6] 100 % of control

O=C1Nc2cccc3cc(O)cc1c23
inactive: [7] 105 % of control | [8] 87 % of control | [9] 92 % of control

O=c1nc2c3ncn(Cc4ccccc4)c3nnn2[nH]1
inactive: [4] 100 % of control | [5] 106 % of control | dose: 400.0 mg/kg/injection, schedule: Q01DX001 (ip), vehicle: carboxymethylcellulose (CMC) 100 % of control

CCOC(=O)Nc1cc(N)c2nnn(C(c3ccccc3)c3ccccc3)c2n1
inactive: [10] 92 % of control | [11] 91 % of control | [12] 91 % of control

COC1OC(COC(=S)SCC2OC(OC)C(OC)C(OC)C2OC)C(OC)C(OC)C1OC (configuration not stated)
inactive: dose: 100.0 mg/kg/injection, schedule: Q04DX002 (ip), vehicle: Klucel (hydroxypropylcellulose) (HPC) 100 % of control | dose: 200.0 mg/kg/injection, schedule: Q04DX002 (ip), vehicle: Klucel (hydroxypropylcellulose) (HPC) 93 % of control and 92 % of control | dose: 400.0 mg/kg/injection, schedule: Q04DX002 (ip), vehicle: Klucel (hydroxypropylcellulose) (HPC) 96 % of control and 89 % of control

O/N=C1\C(Cl)C2CC1C1C=CCC12 (configuration not stated)
inactive: [13] 91 % of control

CCC(=O)Nc1cc(Cl)ccc1OC
inactive: [1] 94 % of control | [10] 98 % of control | [2] 100 % of control | [11] 93 % of control | [3] 93 % of control | [12] 106 % of control

CC(NC(=O)OCc1ccccc1)C(=O)NC(CSCc1ccccc1)C(=O)O (configuration not stated)
inactive: [14] 97 % of control | [15] 97 % of control | [16] 97 % of control

COC(=O)c1c(C(=O)c2ccccc2)nn2c(-c3ccccc3)c(-c3ccccc3)c(-c3ccccc3)c(-c3ccccc3)c12
inactive: [8] 86 % of control | [9] 93 % of control

O[C@@H]1CCC[C@H]1n1cnc2c(=S)nc[nH]c21
inactive: dose: 89.0 mg/kg/injection, schedule: Q04DX003 (ip), vehicle: saline with Tween-80 104 % of control | dose: 133.0 mg/kg/injection, schedule: Q04DX003 (ip), vehicle: saline with Tween-80 112 % of control

O=C1CCCC(=O)c2c(O)ccc(O)c21
inactive: [7] 96 % of control | [8] 98 % of control | [9] 96 % of control

C[As](=O)(O)c1ccc(N)cc1
inactive: [13] 95 % of control | dose: 50.0 mg/kg/injection, schedule: Q04DX003 (ip), vehicle: Klucel (hydroxypropylcellulose) (HPC) 93 % of control | [10] 90 % of control and 92 % of control

CCCCC(C)C1(CC)C(=O)NC(=O)NC1=O (configuration not stated)
inactive: dose: 75.0 mg/kg/injection, schedule: Q01DX001 (ip), vehicle: saline 95 % of control

NC(=O)c1cccc([N+](=O)[O-])c1
inactive: [14] 101 % of control | [15] 95 % of control | [16] 93 % of control

N#Cc1cn(C2OC(CO)C(O)C2O)c2ncn3ccnc3c12 (configuration not stated)
inactive: dose: 100.0 mg/kg/injection, schedule: Q04DX003 (ip), vehicle: water 116 % of control | dose: 200.0 mg/kg/injection, schedule: Q04DX003 (ip), vehicle: water 113 % of control and 117 % of control | dose: 300.0 mg/kg/injection, schedule: Q04DX003 (ip), vehicle: water 121 % of control | dose: 500.0 mg/kg/injection, schedule: Q04DX003 (ip), vehicle: water 107 % of control

Nc1cc(C(=O)O)[nH]c(=O)n1
inactive: dose: 100.0 mg/kg/injection, schedule: Q01DX Z (ip), vehicle: methylcellulose (MC) 97 % of control

O=C(Nc1ccc(Cl)c(Cl)c1)OCC#CCOC(=O)Nc1ccc(Cl)c(Cl)c1
inactive: dose: 100.0 mg/kg/injection, schedule: Q01DX009 (ip), vehicle: saline 99 % of control | dose: 200.0 mg/kg/injection, schedule: Q01DX009 (ip), vehicle: saline 91 % of control | dose: 400.0 mg/kg/injection, schedule: Q01DX009 (ip), vehicle: saline 88 % of control

CCCCCCCCCCCC(=O)CCC
inactive: dose: 100.0 mg/kg/injection, schedule: Q01DX009 (ip), vehicle: other 87 % of control | dose: 100.0 mg/kg/injection, schedule: Q04DX003 (ip), vehicle: other 103 % of control | dose: 200.0 mg/kg/injection, schedule: Q01DX009 (ip), vehicle: other 95 % of control | dose: 200.0 mg/kg/injection, schedule: Q04DX003 (ip), vehicle: other 105 % of control | dose: 400.0 mg/kg/injection, schedule: Q01DX009 (ip), vehicle: other 89 % of control | dose: 400.0 mg/kg/injection, schedule: Q04DX003 (ip), vehicle: other 103 % of control

CN(CC(C)(C)C=O)C(=O)c1ccccc1
inactive: [6] 96 % of control | dose: 200.0 mg/kg/injection, schedule: Q04DX003 (ip), vehicle: saline 103 % of control | dose: 400.0 mg/kg/injection, schedule: Q04DX003 (ip), vehicle: saline 100 % of control

CC(=O)OC1CC(n2cc(C)c(=O)[nH]c2=O)OC1CO (configuration not stated)
inactive: dose: 100.0 mg/kg/injection, schedule: Q01DX005 (ip), vehicle: saline 112 % of control | dose: 200.0 mg/kg/injection, schedule: Q01DX005 (ip), vehicle: saline 109 % of control

CCOP(=S)(S)OCC.[Ni]
inactive: dose: 50.0 mg/kg/injection, schedule: Q01DX001 (ip), vehicle: saline 93 % of control | [7] 102 % of control | [8] 100 % of control
